Assay results reported in article PMC10351190, “Isolation and identification of active ingredients and biological activity of Dioscorea nipponica Makino” (BMC Complementary Medicine and Therapies, 2023).

Target: T1, α-glucosidase
T1 construct: gene MAL12
Experiment: pNPG hydrolysis, absorbance […] nm
Assay type: biochemical
Conditions: pNPG substrate ([…] stock), pH […] °C, […] phosphate

Row | Compound | IC50 [µM]
1 | COc1c(O)cc(C[C@H](O)c2ccccc2)c(C(=O)O)c1O [compound 1, diosniposide E] | > 800
2 | O=C(O)c1c(O)cc(O)cc1C[C@H](O)c1ccccc1 [compound 2, diosniponol C] | > 800
3 | O=C(/C=C/C=C/c1ccc(O)cc1)CCc1ccc(O)cc1 [compound 3, 1,7-bis(4-hydroxyphenyl)hepta-4E,6E-dien-3-one] | 1.6 ± 0.17
4 | COc1cc2c(ccc3cc(O)cc(OC)c32)cc1O [compound 4, 3,5-dimethoxyphenanthrene-2,7-diol] | 31.4 ± 0.18
5 | O=C(O)c1cc(O)c(O)c(O)c1 [compound 5, gallic acid] | > 800
6 | COc1cc2c(ccc3c(-c4c(O)cc(OC)c5c4ccc4cc(O)c(OC)cc45)c(O)cc(OC)c32)cc1O [compound 8, 2,2',7,7'-tetrahydroxy-4,4',6,6'-tetramethoxy-1,1'-biphenanthrenes] | > 800

Second part, the compound after the results:

Row | IC50 [µM] | Compound
7 | > 800 | COC(=O)c1cc(O)c(O)c(O)c1 [compound 6, methyl gallate]
8 | > 800 | COc1cc(C(=O)O)ccc1O [compound 7, vanillic acid]
9 | > 800 | O=c1cc(-c2ccc(O)cc2)oc2cc(O)cc(O)c12 [compound 9, apigenin]
